Measured values from patent publication EP1219638A2, “G-protein coupled receptors having homology to the P2Y purinoreceptor 1 (P2Y1)” (Pfizer Limited, priority 2000, dated 2002).

Tested on: PFI-019, SEQ ID NO: 2
Assay: FLIPR functional cell-based assay for agonist activation (Fluo3 fluorescence), transiently transfected 293 cells expressing mouse Gα15
Parameters: species or system human
Conditions: PFI-019-transfected 293 cells (HEK 293 expressing mouse Gα15); fluorescence intensity versus time; concentration not given; Figures 3-6
Description: Fluorescence Imaging Plate Reader (FLIPR®) technology was employed as a means to detect activation of PFI-019 by agonists in a cell-based assay.
5 x 10^6 Human Embryonic Kidney (HEK) 293 cells expressing the mouse Gα15 gene (from here on called '293 cells'), were transiently transfected with 7.5 µg of PFI-019 (contained within the pcDNA4HIS-max-TOPO (Invitrogen) plasmid) vector, or vector alone, using Lipofectamine Plus® reagent (Gibco BRL) as per the manufacturer's protocol. The plasmid pcDNA4HIS-max-TOPO was used as it contains elements that up-regulate the level of gene transcription over standard pcDNA3.1 vectors. 24 hrs post-transfection, the cells were detached from the flask using Trypsin/EDTA solution (LTI) and seeded into a black sided, Poly-D-lysine-treated, 96-well plate (Becton Dickinson) at 5 x 10^4 cells/well density. The plates were left overnight to allow the cells to adhere to the bottom of the wells. The medium was removed from the cells and replaced with 100 µl warm (37°C) dye loading solution (50 µg Fluo3 (Molecular Probes) in 20 µl DMSO + 20% pluronic acid in DMSO, added to 11 ml Dulbecco's Modified Eagles Medium containing 1x Probenecid (100x Probenecid - 0.71 g Probenecid was dissolved in 5 ml 1M NaOH and 5 ml Dulbeccos' Phosphate Buffered Saline (PBS), per plate; Probenecid (Molecular Probes) inhibits activity of the anion transport protein, thus improving dye loading). The plates were then incubated for 1 hr at 37°C. Plates were subsequently washed with 250 µl of wash buffer per well (5 ml 100x Probenecid stock + 495 ml PBS, pH 7.4) 4 times. The plates were returned to the 37°C/5%CO2 incubator for 30 mins prior to processing within the FLIPR® instrument. The FLIPR® processing involved reading the fluorescence for all samples for 2 minutes; during this time the fluorescence baseline was determined for the first 10 seconds. The desired amount of compound was then automatically transferred to the wells, and the fluorescence was continuously monitored for the remainder of the time. All compounds were diluted in wash buffer
Using methodology as described in detail above, purinoceptor agonist compounds were identified as being able to functionally activate PFI-019.
Figures 3, 4, 5 and 6 show the response of PFI-019-transfected 293 cells to 2-chloroadenosine triphosphate tetrasodium (2-chloro-ATP; Fig. 3), 2-Methylthioadenosine triphosphate tetrasodium (2-methyl-thio-ATP; Fig. 4;); 2-Methylthioadenosine diphosphate trisodium (2-methyl-thio-ADP, Fig. 5) and Uridine triphosphate (Fig. 6). […] All compounds were purchased from Sigma.

SMILES	stimulation of PFI-019
Nc1nc(Cl)nc2c1ncn2[C@@H]1O[C@H](COP(=O)([O-])OP(=O)([O-])OP(=O)([O-])[O-])[C@@H](O)[C@H]1O.[Na+].[Na+].[Na+].[Na+] [2-chloro-ATP, 2-chloroadenosine triphosphate tetrasodium]	stimulation
CSc1nc(N)c2ncn([C@@H]3O[C@H](COP(=O)(O)OP(=O)(O)O)[C@@H](O)[C@H]3O)c2n1 [2-methyl-thio-ADP, 2-Methylthioadenosine diphosphate trisodium]	stimulation
CSc1nc(N)c2ncn([C@@H]3O[C@H](COP(=O)(O)OP(=O)(O)OP(=O)(O)O)[C@@H](O)[C@H]3O)c2n1 [2-methyl-thio-ATP, 2-Methylthioadenosine triphosphate tetrasodium]	stimulation
O=c1ccn([C@@H]2O[C@H](COP(=O)(O)OP(=O)(O)OP(=O)(O)O)[C@@H](O)[C@H]2O)c(=O)[nH]1 [UTP, Uridine triphosphate]	stimulation
